According to patent US20250059196A1 (SHANGHAI HANSOH BIOMEDICAL CO., LTD., priority 2021, published 2025):

Columns and labels:
[1] = tested on: OCI-LY3 cell subcutaneous xenograft tumor; assay: Tumor inhibition in OCI-LY3 subcutaneous xenograft NOG mouse model of human diffuse large B-cell lymphoma; assay type: in vivo; details: NOG mice, 30 mg, BID × 4 weeks, oral; for Weight Day 28: in g (unit assumed); for Tumor volume (Mean ± SD) Day 28: vehicle group 1274 ± 82
Protocol: The efficacy of test drugs was evaluated in OCI-LY3 mouse subcutaneous tumor model of human diffuse large B-cell lymphoma
• 1. Animal: NOG mice, female, 6-8 weeks old, weighing 18-22 grams, a total of 65 mice were needed. Provided by Beijing Vital River Laboratory Animal Technology Co., Ltd. or other qualified suppliers. • 2. Cell: Human diffuse large B-cell lymphoma OCI-LY3 cells were cultured in vitro as monolayers and conventional digestion treatment with trypsin-EDTA was carried out twice a week for passage. When the cell confluence was 80%-90% and the number reached the required number, cells were collected, counted, and inoculated. • 3. Grouping for vaccination: Cells (5×10^6 cells+Matrigel/0.2 ml) were inoculated subcutaneously into each mouse. The growth of animals and transplanted tumors were observed regularly. When the tumor grew to a volume of about 150-200 mm^3, the tumor volume of each mouse was calculated, and the mice were divided into random groups according to tumor volume and body weight. The calculation formula of tumor volume was V=0.5a×b^2, wherein a and b represented the long and short diameters of the tumor, respectively. • 4. Administration: According to the grouping results, the test drug was started to be administered (administration method: oral administration; Administration volume: 10 mL/kg; Administration frequency: 2 times/day; Administration cycle: 28 days; Vehicle: 10% solutol HS15-0.25% CMC-Na). Tumors were measured and weighed twice a week after starting administration of test drugs. • 5. Animals were euthanized after the experiment. • 6. Data processing: The tumor inhibitory efficacy of the compound was evaluated by TGI (%) or relative tumor proliferation rate T/C (%). TGI (%) reflects the tumor growth inhibition rate. Calculation of TGI (%): TGI (%)=[(1−(average tumor volume at the end of administration in a treatment group−average tumor volume at the beginning of administration in the treatment group))/(average tumor volume at the end of administration in the solvent control group−average tumor volume at the beginning of administration in the solvent control group)]×100%.
Relative tumor proliferation rate T/C (%): The calculation formulas are as follows: T/C %=TRTV/CRTV×100% (TRTV: RTV of treatment group; CRTV: RTV of negative control group). The relative tumor volume (RTV) was calculated based on the results of tumor measurement. The calculation formula is RTV=Vt/V0, where V0 is the average tumor volume measured at grouping for administration (i.e. d0), Vt is the average tumor volume at a certain measurement, and TRTV and CRTV take the data on the same day.
After the experiment, the tumor weight was measured, and the T/Cweight percentage was calculated. Tweight and Cweight represented the tumor weight of the administration group and the vehicle control group, respectively.
Remarks: The data in parentheses indicate the tumor volume corresponding to the vehicle group (i.e., the control group) at the corresponding time in this example.

[2] = Caco-2 bidirectional permeability test; details: human, Caco-2
Protocol: The purpose of this experiment is to test the bidirectional permeability of the compound through the Caco-2 cell model and evaluate whether the compound is transported by efflux transporters.
Liquid chromatography-mass spectrometer, centrifuge, vortexer, pipette, 96-well test plate (HTS Transwell Plate), acetonitrile solution containing internal standard, Caco-2 cells (ATCC), Hank's balance solution (HBSS), fluorescent yellow (LY), dimethyl sulfoxide (DMSO).
108 μL of transport buffer (HBSS containing 10 μM of the example compound) was added to the administration end of A to B. • b. 300 μL of transport buffer (HBSS containing DMSO) was added to the receiving end of A to B. • c. 300 μL of transport buffer (HBSS containing 10 μM example compound) was added to the administration end of A to B. • d. 108 μL of transport buffer (HBSS containing DMSO) was added to the receiving end of A to B. • e. incubation was performed for 90 min. • d. a sample was taken, processed and detected with mass spectrometry.
• Instruments: Liquid Chromatography; • Chromatographic column: Waters XSelect HSS T3 2.5 μm (2.1×50 mm); • Mobile phase: Phase A: 0.1% formic acid in pure water; Phase B: 0.1% formic acid in acetonitrile.
• Instruments: AP16500+liquid chromatography-mass spectrometer; • The ion source is electrospray ionization source (ESI); • The detection method is positive ion detection;
The scanning method is selected reaction monitoring (MRM).

Structure (SMILES) | TGI (%) Day 28 [1] [%] | ΔT/ΔC(%) Day 28 [1] [%] | Weight Day 28 [1] | Tumor volume (Mean ± SD) Day 28 [1] | Papp A→B at 90 min, 10 µM [2] [×10⁻⁶ cm/s] | Papp B→A at 90 min, 10 µM [2] [×10⁻⁶ cm/s] | efflux ratio at 90 min, 10 µM [2]
O=C(Nc1cnc(-n2nccn2)c(C(F)(F)F)c1)c1cnn(-c2ccc3c4c(cccc24)C(=O)N3)c1C(F)(F)F [Example 18, N-(6-(2H-1,2,3-triazol-2-yl)-5-trifluoromethylpyridin-3-yl)-1-(2-oxo-1,2-dihydrobenzo[cd]indol-6-yl)-5-trifluoromethyl-1H-pyrazole-4-carboxamide] | 62.73 | 43.82 | 21.03 ± 0.42 | 635 ± 46 (1274 ± 82) mm^3 |  |  | 
O=C(Nc1ccc(-n2nccn2)c(Cl)c1)c1cnn(-c2ccc3c4c(cccc24)C(=O)N3)c1C(F)(F)F [Example 53, N-(3-chloro-4-(2H-1,2,3-triazol-2-yl)phenyl)-1-(2-oxo-1,2-dihydrobenzo[cd]indol-6-yl)-5-(trifluoromethyl)-1H-pyrazole-4-carboxamide] | 67.23 | 41.76 | 20.06 ± 1.08 | 519 ± 89 (1274 ± 82) mm^3 | 1.58 | 4.68 | 2.95
O=C(Nc1ccnc(C(F)(F)F)c1)c1cnn(-c2ccc3c4c(cccc24)C(=O)N3)c1C1CC1 [Example 55, 5-cyclopropyl-1-(2-oxo-1,2-dihydrobenzo[cd]indol-6-yl)-N-(2-(trifluoromethyl)pyridin-4-yl)-1H-pyrazole-4-carboxamide] | 87.99 | 22.76 | 21.15 ± 0.72 | 287 ± 25 (1274 ± 82) mm^3 | 2.09 | 4.08 | 1.97
